{
  "source": "PubChem BioAssay (NCI)",
  "assay_in_all_cases": "NCI tumour cell line growth inhibition, 384-well format",
  "key": {"[1]": {"test_system": "SF-268 CNS"}, "[2]": {"test_system": "NCI-H226 lung"}, "[3]": {"test_system": "NCI/ADR-RES ovarian"}, "[4]": {"test_system": "SK-OV-3 ovarian"}, "[5]": {"test_system": "OVCAR-3 ovarian"}, "[6]": {"test_system": "RXF 393 renal"}, "[7]": {"test_system": "MDA-MB-231 breast"}, "[8]": {"test_system": "HOP-62 NSCLC"}, "[9]": {"test_system": "OVCAR-5 ovarian"}, "[10]": {"test_system": "HS 578T breast"}, "[11]": {"test_system": "COLO 205 colon"}, "[12]": {"test_system": "UACC-62 melanoma"}, "[13]": {"test_system": "SN12C renal"}},
  "note": "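Here, GI50 denotes the concentration required for 50% inhibition of growth. TGI marks complete inhibition of growth.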",
  "data": [
    {"compound": "FC(F)(F)c1ccc(CNc2ccc(Cc3c[nH]c4ncc(Cl)cc34)cn2)cn1", "values": [
      {"measurement": "GI50", "setting": "[1]", "value": 8.91, "unit": "µM"},
      {"measurement": "TGI", "setting": "[1]", "value": 21.7, "unit": "µM"},
      {"measurement": "GI50", "setting": "[2]", "value": 5.32, "unit": "µM"},
      {"measurement": "TGI", "setting": "[2]", "value": 16.3, "unit": "µM"},
      {"measurement": "GI50", "setting": "[3]", "value": 9.91, "unit": "µM"},
      {"measurement": "TGI", "setting": "[3]", "value": 21.9, "unit": "µM"},
      {"measurement": "GI50", "setting": "[4]", "value": 12, "unit": "µM"},
      {"measurement": "TGI", "setting": "[4]", "value": 26, "unit": "µM"},
      {"measurement": "GI50", "setting": "[5]", "value": 15.7, "unit": "µM"},
      {"measurement": "TGI", "setting": "[5]", "value": 29.8, "unit": "µM"},
      {"measurement": "GI50", "setting": "[6]", "value": 4.54, "unit": "µM"},
      {"measurement": "TGI", "setting": "[6]", "value": 14.7, "unit": "µM"},
      {"measurement": "GI50", "setting": "[7]", "value": 13.7, "unit": "µM"},
      {"measurement": "TGI", "setting": "[7]", "value": 26.7, "unit": "µM"},
      {"measurement": "GI50", "setting": "[8]", "value": 12.2, "unit": "µM"},
      {"measurement": "TGI", "setting": "[8]", "value": 25.5, "unit": "µM"},
      {"measurement": "GI50", "setting": "[9]", "value": 15.7, "unit": "µM"},
      {"measurement": "TGI", "setting": "[9]", "value": 29.6, "unit": "µM"},
      {"measurement": "GI50", "setting": "[10]", "value": 2.15, "unit": "µM"},
      {"measurement": "TGI", "setting": "[10]", "value": 7.11, "unit": "µM"},
      {"measurement": "GI50", "setting": "[11]", "value": 14.9, "unit": "µM"},
      {"measurement": "TGI", "setting": "[11]", "value": 28.4, "unit": "µM"},
      {"measurement": "GI50", "setting": "[12]", "value": 12.5, "unit": "µM"},
      {"measurement": "TGI", "setting": "[12]", "value": 25.3, "unit": "µM"},
      {"measurement": "GI50", "setting": "[13]", "value": 14, "unit": "µM"},
      {"measurement": "TGI", "setting": "[13]", "value": 27.1, "unit": "µM"}
    ]}
  ]
}
